Experimental data reported in US20250154288A1, “CYTOTOXICITY TARGETING CHIMERAS FOR C-C CHEMOKINE RECEPTOR 2-EXPRESSING CELLS” (GLAXOSMITHKLINE INTELLECTUAL PROPERTY DEVELOPMENT LIMITED, priority 2022, published 2025).

Tested on: endogenous target monocytes of human PBMC
Assay: PBMC Ex Vivo Depletion Assay (human PBMC monocyte depletion flow cytometry)
Type: cell-based
Settings: monocyte depletion in human PBMC with anti-cotinine antibody; 18-24 hours incubation; read-out: Ex Vivo Depletion Assay pEC50 (converted)
Experimental: A human PBMC (peripheral blood mononuclear cells) monocyte depletion flow cytometry assay was developed to screen compounds in a 384-well plate format. This assay incorporated endogenous natural killer cells to deplete endogenous target monocytes.
To screen compounds in the human PBMC monocyte depletion flow cytometry assay, 11-point dose-response curves were made from 1 mM stocks in neat DMSO by serially diluting an ARM compound of Formula (I) four-fold into a 384-well plate row-wise. These serially diluted compounds were then stamped into a flat bottom polypropylene 384-well plate (Greiner Bio-One) at 100 nL/well. […]
After 18-24 hours incubation, 2 μL of 6.25 μg human FC block (BD Pharmingen) that was diluted in assay medium was added to the wells of the plate. […] Samples from the plate were run on BD FACS Canto II flow cytometer and data was analyzed using FlowJo software.
ARMs compounds of Formula (I) of the invention were tested for the ability to deplete monocytes in the above assay in one or more experimental runs and the results are shown in Table 3 below. […] The pEC50 value is the negative log of the EC50 value, wherein the EC50 value is the half maximal effective concentration measured in molar (M). For compounds tested in more than one experimental run, the pEC50 value is reported as an average or as the individual values measured

CO[C@@H]1COCC[C@@H]1N[C@@H]1CC[C@@](C(=O)N2CCc3nc(CCCCOc4cccc(C(=O)NCCOCCOCCOCCOCCOCCOCCOCCOCCOCCNC(=O)[C@H]5CC(=O)N(C)[C@@H]5c5cccnc5)c4)c(C(F)(F)F)cc3C2)(C(C)C)C1 [Example 22, (2S,3S)—N-(1-(3-(4-(6-((1S,3R)-1-Isopropyl-3-(((3S,4S)-3-methoxytetrahydro-2H-pyran-4-yl)amino)cyclopentane-1-carbonyl)-3-(trifluoromethyl)-5,6,7,8-tetrahydro-1,6-naphthyridin-2-yl)butoxy)phenyl)-1-oxo-5,8,11,14,17,20,23,26,29-nonaoxa-2-azahentriacontan-31-yl)-1-methyl-5-oxo-2-(pyridin-3-yl)pyrrolidine-3-carboxamide]
EC50: 0.794 nM
